Measured values taken from patent US6077845A, “Acridin derivatives” (Gruenenthal GmbH, priority 1998, dated 2000).
Where a name gives a salt, the structure may show the parent alone.

Molecular target: T1, δ-opiate receptor (Rattus norvegicus, UniProt P33533)
T1 construct: from tissue; host or cells: rat brain (male Wistar) without cerebellum and medulla oblongata, membrane homogenate
Assay: δ-Opiate receptor binding ([3H]-2-D-Ala-deltorphin II displacement, rat brain membrane homogenate)
Parameters: species or system rat (male Wistar)
Conditions: 1 nmole/l [3H]-2-D-Ala-deltorphin II, 90 minutes at 37° C., pH 7.4, mean ± standard deviation of three independent tests, Ki from IC50 by Cheng-Prussoff
Experimental: δ-Opiate receptor binding investigations
Tests to determine the affinity of the compounds of formula I according to the invention for δ-opiate receptors were performed on meninx homogenates (homogenates of rat's brain, without the cerebellum and medulla oblongata, taken from male Wistar rats).
For this purpose, freshly prepared rat brains were each homogenised, while being cooled in ice, in 50 mmoles/l Tris-HCl (pH 7.4) and were centrifuged for 10 minutes at 5000 g and […]. After decantation and after rejecting the supernatant liquor, followed by renewed take-up and homogenization of the membrane sediment in 50 mmoles/l Tris-HCl (pH 7.4), the homogenate was subsequently centrifuged for 20 minutes at 20,000 g and […]. This washing step was repeated again. Thereafter, the supernatant liquor was decanted and the membrane sediment was homogenized in cold 50 mmoles/l Tris-HCl, 20% glycerol (w/v), 0.01% bacitracin (w/v) (pH 7.4) and aliquots thereof were frozen until required for testing. For the receptor binding tests, the aliquots were thawed and were diluted 1:10 with the binding test buffer. A solution of […] MgCl2 (pH 7.4), supplemented by 0.1 (w/v) bovine serum albumin, was used as the buffer in the binding tests; 1 nmole/l [^3 H]-2-D-Ala-deltorphin II was used as the radioactive ligand. The proportion of non-specific binding was determined in the presence of 10 μmoles/l naloxon.
In further batches, the compounds according to the invention were added in a series of concentrations and the displacement of the radioactive ligand from its specific binding site was determined. The batches concerned, which were each tested in triplicate, were incubated for 90 minutes at 37° C. and were subsequently harvested in order to determine the radioactive ligand which was bound to the membrane homogenate by filtration through a glass fibre filter (GF/B). The glass fiber filter discs were dried, and the radioactivity thereof was measured in a β-counter after adding a scintillator.
The affinity of the compounds according to the invention for the δ-opiate receptor was calculated as the IC50 value according to the law of mass action, by means of nonlinear regression. Ki values were calculated from the IC50 values using the Cheng-Prussoff equation. The Ki values in Table 1 are given as the mean value±standard deviation of three tests which were independent of each other.

T1 sequence (P33533 whole entry): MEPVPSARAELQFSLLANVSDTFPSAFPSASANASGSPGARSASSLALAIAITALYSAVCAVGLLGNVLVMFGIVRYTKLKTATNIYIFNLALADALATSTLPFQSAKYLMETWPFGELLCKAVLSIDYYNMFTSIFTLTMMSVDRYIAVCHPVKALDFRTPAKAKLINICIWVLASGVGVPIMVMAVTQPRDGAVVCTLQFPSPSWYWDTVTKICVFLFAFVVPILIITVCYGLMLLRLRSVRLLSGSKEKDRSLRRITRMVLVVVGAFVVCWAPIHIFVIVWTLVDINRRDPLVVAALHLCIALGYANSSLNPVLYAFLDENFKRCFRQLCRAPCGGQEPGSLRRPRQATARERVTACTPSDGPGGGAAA

| Structure (SMILES) | Ki [nM] |
| --- | --- |
| COc1cccc([C@@H]2c3cc4ccccc4nc3CC[C@H]2CN(C)C)c1 (racemic) [rac-trans-[1-(3-methoxy-phenyl)-1,2,3,4-tetrahydro-acridin-2-yl-methyl]-dimethylamine hydrochloride] | 127 |
| CN(C)C[C@H]1CCc2nc3ccccc3cc2[C@@H]1c1cccc(O)c1 (relative stereo) [rac-trans-[3-(2-dimethylaminomethyl-1,2,3,4-tetrahydro-acridin-1-yl)]-phenol hydrochloride] | 4.17 |
| CN(C)CC1=C(c2cccc(O)c2)c2cc3ccccc3nc2CC1(C)C [3-(2-dimethylaminomethyl-3,3-dimethyl-3,4-dihydro-acridin-1-yl)-phenol hydrochloride] | 29 |
| COc1cccc(C2=C(CN(C)C)CCc3nc4ccccc4cc32)c1 [[1-(3-methoxy-phenyl)-3,4-dihydro-acridin-2-yl-methyl]-dimethylamine hydrochloride] | 133 |
| CN(C)CC1=C(c2cccc(O)c2)c2cc3ccccc3nc2CC1 [[3-(2-dimethylaminomethyl-3,4-dihydro-acridin-1-yl)]-phenol hydrochloride] | 3.84 |
